“Also recorded” adds a separate entry of the source. Where two headings read alike, the source gives them in different places.
What was measured:
DEN2V NS2B-NS3pro [1] = molecular target: T1, DEN2V NS2B-NS3pro (Dengue virus type 2, UniProt Q91H74); assay: Steady-state kinetics of inhibitors of DEN2V NS2B-NS3pro (Boc-GRR-AMC substrate, Dynafit); assay type: biochemical, Dengue 2 virus; settings: for Mechanism: HTS-identified hits
WNV NS2B-NS3pro = WNV NS2B-NS3pro (West Nile virus, UniProt P06935); assay: Steady-state kinetics of inhibitors of WNV NS2B-NS3pro; assay type: biochemical; settings: for Mechanism: Table 2, WNV NS2B-NS3pro
Chain of WNV NS2B-NS3pro (P06935 1502-1679 limits assumed): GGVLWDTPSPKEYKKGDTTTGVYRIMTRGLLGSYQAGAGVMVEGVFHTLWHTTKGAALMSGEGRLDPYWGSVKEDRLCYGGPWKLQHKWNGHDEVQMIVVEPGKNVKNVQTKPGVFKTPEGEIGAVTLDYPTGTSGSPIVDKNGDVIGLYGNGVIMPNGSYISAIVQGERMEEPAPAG
Chain of WNV NS2B-NS3pro (P06935 1424-1463 partner limits assumed): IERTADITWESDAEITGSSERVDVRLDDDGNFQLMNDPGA

DENV; WNV protease = assay type: biochemical, Dengue virus; West Nile virus
[2] = molecular target: T2, Bovine pancreatic trypsin (Bos taurus, UniProt P00760); assay: biochemical; assay type: biochemical
T2 construct: purchased Sigma Aldrich; host or cells: bovine pancreas
T2 sequence (P00760 24-246): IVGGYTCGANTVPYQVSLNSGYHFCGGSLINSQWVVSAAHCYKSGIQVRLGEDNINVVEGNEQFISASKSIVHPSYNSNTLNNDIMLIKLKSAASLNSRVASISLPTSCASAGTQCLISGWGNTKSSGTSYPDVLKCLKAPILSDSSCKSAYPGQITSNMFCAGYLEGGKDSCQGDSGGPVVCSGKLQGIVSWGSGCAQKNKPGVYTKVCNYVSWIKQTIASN

DEN2V NS2B-NS3pro [3] = molecular target: T1, DEN2V NS2B-NS3pro; assay: Preliminary DEN2V NS2B-NS3pro inhibition assay; assay type: biochemical, Dengue 2 virus; settings: 100 nM protease, 100 μM Boc-GRR-AMC, 30 min at 25° C.; aprotinin at 100 μM
physchem = settings: pH 9, aqueous with cosolvent or surfactant or cyclodextrin, kinetic from dmso stock
[4] = pH 9
[5] = DEN2V NS2B-NS3 Ki1, second series analogs
[6] = DEN2V NS2B-NS3 Ki2, second series analogs
[7] = Ki1 (from biochemical protease inihibition experiments) Dengue 2 virus NS2B-NS3
[8] = Ki1 (from biochemical protease inihibition experiments) West Nile virus NS2B-NS

T1 sequence (Q91H74 entry or part of it, added parts left off): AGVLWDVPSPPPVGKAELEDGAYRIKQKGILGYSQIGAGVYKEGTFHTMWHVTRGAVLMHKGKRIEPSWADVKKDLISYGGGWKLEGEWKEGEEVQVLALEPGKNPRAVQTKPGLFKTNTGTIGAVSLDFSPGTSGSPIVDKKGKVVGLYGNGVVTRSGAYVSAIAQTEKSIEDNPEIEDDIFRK
T1 sequence (Q91H74 entry or part of it partner, added parts left off): as the sequence (Q91H74 entry or part of it, added parts left off) above

Q: Which results are given for `O=C(Nc1ccc(O)c2ccccc12)c1ccc([N+](=O)[O-])cc1[N+](=O)[O-]` [Compound 273]?
A: Ki (DEN2V NS2B-NS3pro [1]; Denpro Ki1): < 223 µM; Ki (WNV NS2B-NS3pro; WNpro Ki1): < 169 µM; Ki (WNV NS2B-NS3pro; WNpro Ki2): < 186 µM; Protease inhibited in Knock-down (DENV; WNV protease): DENV; WNV

Q: With `O=[N+]([O-])c1ccc(/N=N/c2c(O)cc(O)c3ccccc23)c(O)c1` [Compound 302] as the molecule, how does the “Protease inhibited in Knock-down” value (DENV; WNV protease) read?
A: Its value is “DENV; WNV”.

Q: With `CO[C@H]1C[C@H](O[C@@H]2/C(C)=C/C[C@@H]3C[C@@H](C[C@]4(CC[C@H](C)[C@@H](C5CCCCC5)O4)O3)OC(=O)[C@@H]3C=C(C)/C(=N/O)[C@H]4OC/C(=C\C=C\[C@@H]2C)[C@]43O)O[C@@H](C)[C@@H]1O` [MS24, Selamectin, reference compound] as the molecule, how does the Ki (DEN2V NS2B-NS3pro [1]; Ki1, Table 1, DEN2V NS2B-NS3pro) read?
A: The Ki was 63 ± 18 µM.

Q: And the Ki (DEN2V NS2B-NS3pro [1]; Ki2, Table 1, DEN2V NS2B-NS3pro)?
A: Its Ki is 45 ± 8 µM.

Q: And the Mechanism (DEN2V NS2B-NS3pro [1]; Table 1, DEN2V NS2B-NS3pro)?
A: The Mechanism was “Mixed”.

Q: And the Ki (WNV NS2B-NS3pro; Ki1, Table 2, WNV NS2B-NS3pro)?
A: The Ki was 15 ± 9 µM.

Q: And the Ki (WNV NS2B-NS3pro; Ki2, Table 2, WNV NS2B-NS3pro)?
A: The Ki was 28 ± 6 µM.

Q: What about the Mechanism (WNV NS2B-NS3pro) of the same molecule?
A: Its Mechanism is “Mixed”.

Q: Which results are given for `O=C1c2ccc(O)cc2C(=O)c2c1ccc(O)c2O` [Compound 6A47]?
A: Mechanism (trypsin inhibition) [2]: mixed noncompetitive trypsin inhibitors; also recorded: inhibited both the DEN2V NS2B-NS3 protease and trypsin; Ki ([2]; Ki1 trypsin): 4 µM; Ki ([2]; read-out: Ki2 trypsin): 25 ± 3 µM; Inhibition of DEN2V NS2B-NS3pro in the preliminary inhibition assay (DEN2V NS2B-NS3pro [3]): significant inhibition; solubility (physchem): > 10 µM

Q: With `O=[N+]([O-])c1cc([N+](=O)[O-])c2ccccc2c1[O-].[Na+]` [Compound 6A40] as the molecule, how does the solubility (physchem) read?
A: Its solubility is < 10 µM.

Q: With `O=C1c2ccc(O)c(O)c2C(=O)c2c(O)ccc(O)c21` [Compound 6A61] as the molecule, how does the Ki (DEN2V NS2B-NS3pro [1]; [5]) read?
A: The Ki was 72 ± 15 µM.

Q: And the Ki (DEN2V NS2B-NS3pro [1]; [6])?
A: The Ki was 10 ± 2 µM.

Q: And the Ki (DEN2V NS2B-NS3pro [1]; [7])?
A: The Ki was 72 µM.

Q: What about the “DEN2V NS2B-NS3 Mechanism” value (DEN2V NS2B-NS3pro [1]; second series analogs) of the same molecule?
A: The value was “Mixed”.

Q: What about the Ki (WNV NS2B-NS3pro; [8]) of the same molecule?
A: The Ki was 31 µM.

Q: What about the “Trypsin Mechanism” value [2] of the same molecule?
A: The value was “did not inhibit trypsin; also recorded: No inhibition”.

Q: What about the solubility (physchem) of the same molecule?
A: Its solubility is > 10 µM.

Q: Which “Solubility in the kinetic reaction buffer” value [4] does the source give for `COc1cc(O)c2c(=O)c3c(O)ccc(OCl)c3oc2c1` [Compound 6A63] here?
A: The value was “not soluble”.

Q: And the solubility (physchem)?
A: The solubility was < 10 µM.

Q: Which solubility (physchem) does the source give for `Nc1c(Br)cc(O)c2c1C(=O)c1ccccc1C2=O` [Compound 6A53] here?
A: Its solubility is < 10 µM.

Q: Which “Protease inhibited in Knock-down” value (DENV; WNV protease) does the source give for `Cc1ccc(O)c(/N=N/c2c(O)cc(O)c3ccccc23)c1` [Compound 301] here?
A: The value was “DENV; WNV”.

Q: For `O=c1[nH]c2cc([N+](=O)[O-])c([N+](=O)[O-])cc2[nH]c1=O` [Compound 6A29], which solubility (physchem) is on record?
A: The solubility was < 10 µM.

Q: With `Oc1ccc2cc(/N=N/c3ccc4c(c3)OCO4)c(O)cc2c1` [Compound 292] as the molecule, how does the “Protease inhibited in Knock-down” value (DENV; WNV protease) read?
A: The value was “WNV”.

Q: With `N=C(N)c1ccccc1` [Benzamidine, reference compound] as the molecule, how does the “Mechanism (trypsin inhibition)” value [2] read?
A: Its value is “competitive trypsin inhibitors”.

Q: With `Nc1ccc2c(c1[N+](=O)[O-])C(=O)c1ccccc1C2=O` [Compound 6A35] as the molecule, how does the solubility (physchem) read?
A: The solubility was < 10 µM.

Q: For `O=P(=O)c1ccc(OC2OCC(O)C(O)C2O)cc1` (stereo not shown) [Compound 6A31], which solubility [4] is on record?
A: Its solubility is “NS (key: compounds soluble in aqueous buffer were indicated with “S”; insoluble compounds indicated with “NS.”)”.

Q: For aprotinin [reference compound], which “Inhibition of DEN2V NS2B-NS3pro in the preliminary inhibition assay” value (DEN2V NS2B-NS3pro [3]) is on record?
A: Its value is “fluorescence levels that were similar to that of the “substrate alone” background control”.

Q: Which solubility (physchem) does the source give for `Cc1cccc2c1C(=O)c1cccc([N+](=O)[O-])c1C2=O` [Compound 6A41] here?
A: Its solubility is < 10 µM.

Q: Which results are given for `O=[N+]([O-])c1ccc(/C=N/c2ccc(O)c3ccccc23)c([N+](=O)[O-])c1` [Compound 260]?
A: Ki (DEN2V NS2B-NS3pro [1]; Denpro Ki1): 52 µM; Ki (DEN2V NS2B-NS3pro [1]; Denpro Ki2): 5 µM; Ki (WNV NS2B-NS3pro; WNpro Ki1): 14 µM; Ki (WNV NS2B-NS3pro; WNpro Ki2): 5 µM; Protease inhibited in Knock-down (DENV; WNV protease): DENV; WNV

Q: Which solubility (physchem) does the source give for `CN/N=C1/c2ccccc2C(=O)c2c(O)ccc(O)c21` [Compound 6A48] here?
A: The solubility was > 10 µM.

Q: What does the source list for `Oc1ccc2cc3ccc(O)cc3c(O)c2c1` [Compound 6A60]?
A: Ki (DEN2V NS2B-NS3pro [1]; [5]): 7 ± 5 µM; Ki (DEN2V NS2B-NS3pro [1]; [6]): 3 ± 1 µM; Ki (DEN2V NS2B-NS3pro [1]; [7]): 7 µM; DEN2V NS2B-NS3 Ki1 (DEN2V NS2B-NS3pro [1]; second series analogs): lowest Ki1 of all anthracene-based analogs; DEN2V NS2B-NS3 Mechanism (DEN2V NS2B-NS3pro [1]; second series analogs): Mixed; Ki (WNV NS2B-NS3pro; [8]): 11 µM; Trypsin Mechanism [2]: did not inhibit trypsin cleavage activity; also recorded: No inhibition; solubility (physchem): > 10 µM

Q: For `O=[N+]([O-])c1ccc(OP(=O)([O-])Oc2ccc([N+](=O)[O-])cc2)cc1.[Na+]` [Compound 6A24], which solubility (physchem) is on record?
A: Its solubility is < 10 µM.

Q: For `CC(=O)Oc1cc2c(cc1OC(C)=O)[C@@H]1c3ccc(OC(C)=O)c(OC(C)=O)c3OC[C@]1(OC(C)=O)C2` [MS5, Haematoxylin pentaacetate], which Mechanism (DEN2V NS2B-NS3pro [1]; Table 1, DEN2V NS2B-NS3pro) is on record?
A: The Mechanism was “Mixed”.

Q: And the Ki (DEN2V NS2B-NS3pro [1]; Table 1, DEN2V NS2B-NS3pro, read-out: Ki1)?
A: The Ki was 16 ± 7 µM.

Q: And the Ki (DEN2V NS2B-NS3pro [1]; Table 1, DEN2V NS2B-NS3pro, read-out: Ki2)?
A: The Ki was 5 ± 0.7 µM.

Q: And the Mechanism (WNV NS2B-NS3pro)?
A: Its Mechanism is “Mixed”.

Q: And the “Inhibition in single-point knock-down assays with either protease” value (DENV; WNV protease; compound incubated with cleavage buffer overnight (complete oxidation))?
A: The value was “no observable inhibition”.

From patent US8778876B2, “Small-molecule inhibitors of Dengue and West Nile virus proteases” (The Board of Regents of the University of Texas System, priority 2011, dated 2014)
